According to publication PMC2602975, “Clofazimine Inhibits Human Kv1.3 Potassium Channel by Perturbing Calcium Oscillation in T Lymphocytes” (PLoS ONE, 2008):

Experiments:
Kv1.3 potassium channel = target: T1, Kv1.3 potassium channel (Homo sapiens, UniProt P22001); assay: IC50 from whole-cell patch clamp in Jurkat T cells; format: cell-based
T1 construct: gene KCNA3; His-Kv1.3 expressed in 293T cells and purified (gel shift); endogenous Kv1.3 in Jurkat T cells (patch clamp)

mouse Kv1.3 = target: T2, mouse Kv1.3 (Mus musculus, UniProt P16390); assay: whole-cell patch clamp; format: cell-based
T2 construct: gene Kcna3; mouse Kv1.3 stably expressed in L929 cells
T2 sequence (P16390 whole entry): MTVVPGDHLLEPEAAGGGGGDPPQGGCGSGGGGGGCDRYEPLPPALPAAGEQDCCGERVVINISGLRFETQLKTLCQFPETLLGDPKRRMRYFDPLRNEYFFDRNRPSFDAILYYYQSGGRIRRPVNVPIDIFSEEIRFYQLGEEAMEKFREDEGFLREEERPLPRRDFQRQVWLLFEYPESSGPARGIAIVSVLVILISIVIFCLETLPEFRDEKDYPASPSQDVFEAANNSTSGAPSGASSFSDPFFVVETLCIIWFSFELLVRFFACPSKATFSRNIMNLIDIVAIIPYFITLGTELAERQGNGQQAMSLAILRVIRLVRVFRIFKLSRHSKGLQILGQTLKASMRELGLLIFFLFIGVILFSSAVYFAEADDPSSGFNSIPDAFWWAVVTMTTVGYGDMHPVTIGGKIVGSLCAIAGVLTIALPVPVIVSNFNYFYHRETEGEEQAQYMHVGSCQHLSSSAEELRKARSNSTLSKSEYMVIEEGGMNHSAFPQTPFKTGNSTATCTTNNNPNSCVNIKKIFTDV

T1 sequence (P22001 whole entry): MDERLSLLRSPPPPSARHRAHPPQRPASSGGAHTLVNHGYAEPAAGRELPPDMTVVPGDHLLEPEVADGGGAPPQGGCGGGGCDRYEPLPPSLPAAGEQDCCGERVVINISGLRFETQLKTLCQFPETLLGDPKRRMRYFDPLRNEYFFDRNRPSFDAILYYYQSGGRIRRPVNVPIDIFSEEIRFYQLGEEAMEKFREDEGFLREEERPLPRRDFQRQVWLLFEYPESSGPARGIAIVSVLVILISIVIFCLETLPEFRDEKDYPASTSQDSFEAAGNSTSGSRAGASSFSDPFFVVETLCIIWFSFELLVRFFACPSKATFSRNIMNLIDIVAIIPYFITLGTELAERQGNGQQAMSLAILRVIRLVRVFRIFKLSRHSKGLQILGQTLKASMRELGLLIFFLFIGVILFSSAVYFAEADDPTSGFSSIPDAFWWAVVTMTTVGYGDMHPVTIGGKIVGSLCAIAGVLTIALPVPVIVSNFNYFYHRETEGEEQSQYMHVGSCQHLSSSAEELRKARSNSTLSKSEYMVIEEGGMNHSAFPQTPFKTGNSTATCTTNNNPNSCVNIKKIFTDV

- IC50 (Kv1.3 potassium channel): 300 nM
- IC50 (mouse Kv1.3): 470 nM
Structure (SMILES): CC(C)/N=c1\cc2n(-c3ccc(Cl)cc3)c3ccccc3nc-2cc1Nc1ccc(Cl)cc1 [CLF, clofazimine]
